The results in this text go back to paper PMC12884720, “Gabpα‐Pparγ Complex Determines Glycolytic Capacity and Lactic Acid Homeostasis in Brown Fat” (Advanced Science, 2025).

SMILES strings stand for the structures. Residues, ends and D or L forms follow the SMILES beside them. *: point of attachment. FITC = O=C1OC2(c3ccc(O)cc3Oc3cc(O)ccc32)c2ccc(NC(=S)*)cc21

Series [1] concerns wild‐type mice. In words: BAT mass, body weight, tissue mass and morphology of mice after BAT injection of peptide. It counts as in vivo, wild‐type C57BL/6J mice. The following applies: GPCBi 5.5 mg kg^−1 orthotopically into BAT. Here is the method:
(§1) The mouse experiments were approved by the Institutional Animal Care and Use Committee of the Institute of Model Animals of Tongji Hospital, Huazhong University of Science and Technology, and were performed in compliance with all relevant ethical regulations (approval number: TJH‐202110044). Unless otherwise noted, the mice were housed in a pathogen‐free and climate‐controlled environment (22–25 °C, 40‐60% humidity) and were given free access to food and water on a 12 h light/dark cycle. Wild‐type C57BL/6J mice were obtained from Beijing Huafukang Bioscience Co., Ltd. (Beijing, China). Gabpa ^flox/flox , Adipoq^Cre , and Ucp1^Cre mice were purchased from Cyagen Biosciences, Inc. (Guangzhou, China). For GPCBi treatment, wild‐type mice were orthotopically injected GPCBi (FITC‐[…]; 5.5 mg kg^−1) or scramble peptide (FITC‐[…]; 5.5 mg kg^−1) into the BAT at room temperature for one week. […] For cold exposure, the mice were caged individually and exposed to a temperature of 10 or 4 °C. The mice were euthanized by CO2 inhalation. For studies with specific diets, five‐week‐old male Gabpα ^Adipo KI mice and their respective littermate control mice were fed a HFD (D12492, Research Diets; 60 kcal% fat, 20 kcal% carbohydrates, and 20 kcal% protein; Medicience Ltd., Jiangsu, China) at ambient temperature. The food was changed every week. Body weight was measured every week, and tissue weights were measured at the time of euthanasia.

Series [2] concerns BAT from wild‐type mice. In words: Gene expression (mRNA, protein) in BAT of treated mice. In kind it is in vivo, wild‐type C57BL/6J mice. How it is done:
(§2) Reverse transcription of cDNA was completed via the use of 1 µg of RNA with HiScript II Q RT SuperMix for real‐time quantitative PCR (qPCR) (Vazyme Biotech, Nanjing, China, Cat# R222) according to the provided protocols. qPCR was performed with a real‐time PCR system on a QuantStudio1 (Applied Biosystems) using Taq Pro Universal SYBR qPCR Master Mix (Vazyme Biotech., Nanjing, China, Cat# Q712‐02). Relative transcript levels were calculated via the comparative C T method; 36b4 was used as the internal control for cells, whereas Hprt was used as the internal control for tissues. The primer sequences are listed in Table S1 (Supporting Information). The mRNAs from the BAT of control and Gabpα ^Ucp1 KO mice were extracted and subjected to commercial RNA‐seq (BGI Genomics Co., Ltd.) for further DEG and KEGG pathway enrichment analysis. In detail, RNA quality was examined with Fragment (Agilent). High‐quality RNA (RIN > 8.0) was used to library construction. RNA‐seq was performed at BGI Genomics (China) using the Illumina NovaSeq 6000 platform. Clean reads were aligned to the mouse reference genome (GRCm39) using Bowtie2, and transcript quantification was performed with RSEM. […] The RNA‐seq data generated in this study have been deposited in the National Center for Biotechnology Information Sequence Read Archive database under accession code PRJNA1358056.
(§3) Cells and tissues were lysed in RIPA lysis buffer (Beyotime, Shanghai, China, Cat# P0013B) containing a protease inhibitor cocktail (MedChem Express, NJ, USA, Cat# HY‐K0010) according to the manufacturer's protocol. Equal amounts of protein were separated on SDS‒PAGE gels and transferred to PVDF membranes (Millipore). The PVDF membranes were blocked in 5% skim milk for 1 h at room temperature and then incubated with primary antibody overnight at 4 °C. The membranes were washed three times with TBST and then incubated with HRP‐conjugated secondary antibodies for 1 h at room temperature. After washing three times, the Western blots were imaged via an enhanced chemiluminescence system.

Series [3] concerns wild‐type mice. In words: Lactate levels in BAT and serum. It counts as in vivo, wild‐type C57BL/6J mice. The following applies: GPCBi 5.5 mg kg^−1 in BAT, 23 °C for 7 days then 10 °C for 2 days. How it is done: as §1, with “For studies with specific diets, five‐week‐old male Gabpα ^Adipo KI mice and their respective littermate control mice were fed a HFD (D12492, Research Diets; 60 kcal% fat, 20 kcal% carbohydrates, and 20 kcal% protein; Medicience Ltd., Jiangsu, China) at ambient temperature. The food was changed every week.” left out, “euthanasia. […]” for “euthanasia.”

In series [4] the test system is BAT from wild‐type mice. Briefly: H&E staining and Ucp1 immunostaining of BAT. In kind it is in vivo, wild‐type C57BL/6J mice. As to conditions: GPCBi 5.5 mg kg^−1 orthotopically into BAT. Here is the method: as §1
For haematoxylin and eosin (H&E) staining, adipose tissues and the liver were fixed in 4% paraformaldehyde overnight at 4 °C and then dehydrated in 70% ethanol. The tissues were subsequently embedded in paraffin, sectioned at a thickness of 5 µm, and stained with H&E or immunostained with a Ucp1 antibody (Abcam, UK, Cat# ab234430, 1:500 dilution) following the standard protocol. For Oil Red O staining, frozen liver sections were stained with Oil Red O solution for 10 min and then counterstained with haematoxylin for 20 s. Images of the tissue samples were captured via an Olympus BX53 Orthomicroscope. […]

The test system of series [5] is wild‐type mice. Briefly: Fasting blood glucose. As to conditions: GPCBi 5.5 mg kg^−1 orthotopically into BAT; n = 5 (Figure S4h). It counts as in vivo, wild‐type C57BL/6J mice. How it is done: as §1, with “For studies with specific diets, five‐week‐old male Gabpα ^Adipo KI mice and their respective littermate control mice were fed a HFD (D12492, Research Diets; 60 kcal% fat, 20 kcal% carbohydrates, and 20 kcal% protein; Medicience Ltd., Jiangsu, China) at ambient temperature. The food was changed every week.” left out

The subject of series [6] is wild‐type mice. Briefly: Cold challenge: rectal core body temperature and survival. In kind it is in vivo, wild‐type C57BL/6J mice. As to conditions: 4 °C. Here is the method: as §1, with “For studies with specific diets, five‐week‐old male Gabpα ^Adipo KI mice and their respective littermate control mice were fed a HFD (D12492, Research Diets; 60 kcal% fat, 20 kcal% carbohydrates, and 20 kcal% protein; Medicience Ltd., Jiangsu, China) at ambient temperature. The food was changed every week.” left out

The subject of series [7] is differentiated iBAT‐SVF cells. In words: Relative mRNA and protein levels in differentiated iBAT-SVF cells. In kind it is cell-based, C57BL/6 mice. As to conditions: GPCBi 5 µM. Here is the method: Interscapular BAT‐SVF cells were obtained from eight‐week‐old male C57BL/6 mice. […] The tissue homogenates were filtered through a 70 µm cell strainer and centrifuged at 1000 rpm for 5 min. The cell pellet was resuspended in DMEM supplemented with 10% FBS (Sigma–Aldrich) and 1% penicillin/streptomycin (P/S) at 37 °C with 5% CO2. The next day, BAT‐SVF cells were immortalized with the SV40 large T antigen according to a published protocol.^[ [32] ^] […] After 48 h, the induction medium was replaced with a maintenance cocktail (5 µg mL^−1 insulin, 1 nM triiodo‐L‐thyronine, and 1 µM rosiglitazone) until 6 to 8 days after the induction of differentiation.
as §2, §3

Turning to `CC[C@H](C)[C@H](NC(=O)[C@H](CCCNC(=N)N)NC(=O)[C@H](CS)NC(=O)[C@H](CC(N)=O)NC(=O)[C@H](CC(C)C)NC(=O)[C@H](CC(=O)O)NC(=O)[C@H](CS)NC(=O)[C@H](CCCNC(=N)N)NC(=O)[C@H](CC(=O)O)NC(=O)[C@H](Cc1ccc(O)cc1)NC(=O)[C@@H](NC(=O)[C@H](CC(C)C)NC(=O)[C@H](CCCCN)NC(=O)[C@H](CC(C)C)NC(=O)[C@H](CCCNC(=N)N)NC(=O)[C@@H](NC(=O)[C@@H](NC(=O)[C@H](CCCNC(=N)N)NC(=O)[C@H](CCCNC(=N)N)NC(=O)[C@H](CCCNC(=N)N)NC(=O)[C@H](CCCNC(=N)N)NC(=O)[C@H](CCCNC(=N)N)NC(=O)[C@H](CCC(N)=O)NC(=O)[C@H](CCCNC(=N)N)NC(=O)[C@H](CCCNC(=N)N)NC(=O)[C@H](CCCCN)NC(=O)[C@H](CCCCN)NC(=O)[C@H](CCCNC(=N)N)NC(=O)CNC(=O)[C@H](Cc1ccc(O)cc1)NC(=S)Nc1ccc2c(c1)C(=O)OC21c2ccc(O)cc2Oc2cc(O)ccc21)[C@@H](C)O)[C@@H](C)CC)[C@@H](C)CC)C(=O)N[C@@H](Cc1c[nH]cn1)C(=O)N[C@@H](CCCCN)C(=O)N[C@@H](CCCCN)C(=O)N[C@@H](CO)C(=O)N[C@@H](CCCNC(=N)N)C(=O)N[C@@H](CC(N)=O)C(=O)N[C@@H](CCCCN)C(=O)O` [GPCBi] ({FITC}-YGRKKRRQRRRRRTIRLKLIYDRCDLNCRIHKKSRNK-OH; N-terminus and C-terminus assumed), in the series on wild‐type mice [1] (one week (Figure S4f)), the BAT morphology result is given as “morphological changes”. Further, the “body weight or the morphology or tissue mass of IngWAT, EpiWAT, or the liver” value with wild‐type mice [1] (one week, n = 4 (Figure S4e-g)) is given as “no significant changes”. In addition, the BAT mass result in the series with wild‐type mice [1] (room temperature, one week, versus scramble peptide, n = 4 (Figure S4g)) was “reduced BAT mass”. The “Ldh and Ucp1 expression in BAT” value in the series with BAT from wild‐type mice [2] (GPCBi 5.5 mg kg^−1 in BAT, 23 °C for 7 days then 10 °C for 2 days, mRNA n = 4 (Figure 5e,f)) was “effectively downregulated”. Moreover, the “gene expressions of Eno1, Pkm2, and Ucp1 in BAT” value in the series on BAT from wild‐type mice [2] (GPCBi 5.5 mg kg^−1 orthotopically into BAT, 7 days, control n = 3, GPCBi n = 4 (Figure 4l,m)) was “decreased”. For the same compound, the “regulatory gene expression of the futile lipid cycle, BAT” value in the series with BAT from wild‐type mice [2] (GPCBi in BAT, 23 °C for 7 days to 10 °C for 2 days, control n = 4, GPCBi n = 3 (Figure S5a)) is reported as “substantially impaired”. Also, in the series on wild‐type mice [3] (n = 3 (Figure 5c)), the “production of lactate in brown fat” value is listed as “substantially suppressed”. Further, in the series with wild‐type mice [3] (n = 3 (Figure 5d)), the “lactate in circulation (serum)” value is on record as “substantially suppressed”. In addition, the “lipid accumulation in BAT” value in the series with BAT from wild‐type mice [4] (H&E, 7 days (Figure 4i,j)) is recorded as “increased lipid accumulation”. In addition, the “Ucp1 abundance in BAT” value with BAT from wild‐type mice [4] (Ucp1 immunostaining, 7 days (Figure 4i,k)) is “decreased Ucp1 abundance”. In addition, the “fasting blood glucose levels” value in the series on wild‐type mice [5] is listed as “markedly increased”. Besides, the “maintenance of core body temperature under acute cold stress” value in the series with wild‐type mice [6] (control n = 7, GPCBi n = 8 (Figure 4q)) is on record as “struggled to maintain their core body temperatures”. In addition, in the series on wild‐type mice [6] (control n = 7, GPCBi n = 8 (Figure 4r)), the “mortality under acute cold stress” value was “increased mortality”. Moreover, in series [7] (first 2 days of adipogenic differentiation (Figure 4e,f), mRNA n = 3), the “expression of glycolytic and thermogenic genes” value was “decreased the expression of glycolytic and thermogenic genes”. For the same compound, the “expression of adipogenic gene Adipoq” value in series [7] (first 2 days of adipogenic differentiation (Figure 4e,f), n = 3) is on record as “did not change”. The “expression of Ldh and Ucp1 in brown adipocytes” value in series [7] (first 2 days of adipogenic differentiation (Figure 5m)) was “lower expression”. Besides, the “regulatory gene expression of the futile lipid cycle, differentiated iBAT‐SVF cells” value in series [7] (first 2 days of adipogenic differentiation (Figure S5c)) is recorded as “substantially impaired”. Also, the “thermogenic gene ucp1 in GPCBi‐treated brown adipocytes” value in series [7] (first 2 days of adipogenic differentiation, without Enoblock (Figure 5p)) was “downregulated”.
